{"source": "patent US7803930B2", "about": "“Antisense modulation of apolipoprotein B-expression” (Isis Pharmaceuticals, Inc., priority 2002, dated 2010)", "key": {"apolipoprotein B mRNA [1]": {"tested_on": "apolipoprotein B mRNA", "assay": "High fat fed mice, time-dependent effects and after cessation of dosing (Example 51): apolipoprotein B mRNA in liver", "assay_type": "in vivo, mouse", "settings": "liver, 50 mg/kg i.p. twice weekly", "procedure": "(§1) In a further embodiment of the invention, the inhibition of apolipoprotein B mRNA in mice was compared to liver oligonucleotide concentration, total cholesterol, LDL-cholesterol and HDL-cholesterol. Male C57Bl/6 mice receiving a high fat diet (60% fat) were evaluated over the course of 6 weeks for the effects of treatment with twice weekly intraperitoneal injections of 50 mg/kg ISIS 147764 (SEQ ID NO: 109) or 50 mg/kg of the control oligonucleotide ISIS 141923 (SEQ ID NO: 858). Control animals received saline treatment. Animals were sacrificed after 2 days, 1, 2, 4 and 6 weeks of treatment. Each treatment group at each time point consisted of 8 mice.\n(§2) Target expression in liver was measured by real-time PCR as described by other examples herein and is expressed as percent inhibition relative to saline treated mice. Total, LDL- and HDL-cholesterol levels were measured by routine clinical analysis using an Olympus Clinical Analyzer (Olympus America Inc., Melville, N.Y.) and are presented in mg/dL. Results from saline-treated animals are shown for comparison. Intact oligonucleotide in liver tissue was measured by capillary gel electrophoresis and is presented as micrograms of oligonucleotide per gram of tissue.\n(§3) The oligonucleotide treatments described in this example were duplicated to investigate the extent to which effects of ISIS 147764 persist following cessation of treatment. Mice were treated as described, and sacrificed 1, 2, 4, 6 and 8 weeks following the cessation of oligonucleotide treatment."}, "PTEN": {"tested_on": "PTEN", "assay": "ob/ob mice (Example 50): PTEN levels", "assay_type": "in vivo, mouse", "settings": "high fat high cholesterol diet, 50 mg/kg i.p. twice a week, six weeks", "procedure": "(§4) Ob/ob mice receiving a high fat, high cholesterol diet (60% kcal fat supplemented with 0.15% cholesterol) were treated with one of several oligonucleotides to evaluate their effect on apolipoprotein B-related phenotypic endpoints in ob/ob mice. After overnight fasting, mice from each group were dosed intraperitoneally twice a week with 50 mg/kg of ISIS 147483 (SEQ ID NO: 79), or 147764 (SEQ ID NO: 109), or the controls ISIS 116847 (SEQ ID NO: 857), or 141923 (SEQ ID NO: 858), or saline for six weeks. At study termination and forty eight hours after the final injections, animals were sacrificed and evaluated for target mRNA levels in liver, cholesterol and triglyceride levels, liver enzyme levels, serum glucose levels, and PTEN levels."}, "[2]": {"assay": "High fat fed mice (Example 51): total, LDL- and HDL-cholesterol levels", "assay_type": "in vivo, mouse", "settings": "50 mg/kg i.p. twice weekly", "procedure": "as §1, §2, §3"}, "[3]": {"assay": "High fat fed mice (Example 51): intact oligonucleotide in liver tissue by capillary gel electrophoresis", "assay_type": "in vivo, mouse", "settings": "50 mg/kg i.p. twice weekly", "procedure": "as §1, §2, §3"}, "[4]": {"assay": "ob/ob mice (Example 50): cholesterol, lipid, triglyceride, liver enzyme and glucose levels", "assay_type": "in vivo, mouse", "settings": "high fat high cholesterol diet, 50 mg/kg i.p. twice a week, six weeks", "procedure": "as §4"}, "apolipoprotein B mRNA [5]": {"tested_on": "apolipoprotein B mRNA", "assay": "ob/ob mice (Example 50): apolipoprotein B mRNA levels in liver", "assay_type": "in vivo, mouse", "settings": "liver, high fat high cholesterol diet, 50 mg/kg i.p. twice a week, six weeks", "procedure": "as §4"}, "apolipoprotein B protein [6]": {"tested_on": "apolipoprotein B protein", "assay": "Apolipoprotein B protein in primary Cynomolgous monkey hepatocytes, immunoblot", "assay_type": "cell-based", "procedure": "Additionally, protein was isolated from oligonucleotide-treated primary Cynomolgous monkey hepatocytes and subjected to immunoblot analysis to further assess apolipoprotein B protein expression. Immunoblotting was performed as described herein, using an antibody to human apolipoprotein B protein (US Biologicals, Swampscott, Mass.)."}, "[7]": {"tested_on": "Cynomolgous monkey apolipoprotein B mRNA", "assay": "Apolipoprotein B mRNA in primary Cynomolgous monkey hepatocytes, real-time PCR", "assay_type": "cell-based", "settings": "cynomolgous monkey primary hepatocytes; 10, 50, 150 or 300 nM", "summary_of_the_method": "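Primary cynomolgus hepatocytes treated with antisense oligonucleotides at 10, 50, 150 or 300 nM (some sets 10–150 nM) for 24 or 48 h, depending on the set. mRNA quantified by real-time PCR using human apoB and GAPDH primers/probes. Values are percent inhibition normalized to untreated cells, averaged over 2–6 experiments.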"}, "apolipoprotein B protein [8]": {"tested_on": "apolipoprotein B protein", "assay": "Apolipoprotein B protein secreted from primary Cynomolgous monkey hepatocytes, ELISA", "assay_type": "cell-based", "settings": "primary Cynomolgous hepatocytes; 150 and 300 nM", "procedure": "Apolipoprotein B protein secreted from primary Cynomolgous hepatocytes treated with 150 and 300 nM of oligonucleotide was measured by ELISA using an apolipoprotein B protein specific kit (ALerCHEK Inc., Portland, Me.). Each result represents the average of 3 experiments.\nApolipoprotein B protein secreted primary Cynomolgous hepatocytes treated with 50 and 150 nM of ISIS 315089 and ISIS 281625 was measured by ELISA using an apolipoprotein B protein specific kit (ALerCHEK Inc., Portland, Me.). Each result represents the average of 3 experiments.\nApolipoprotein B protein secreted from primary Cynomolgous hepatocytes treated with 50 and 150 nM of ISIS 271009 and ISIS 301027 was measured by ELISA using an apolipoprotein B protein specific kit (ALerCHEK Inc., Portland, Me.). Each result represents the average of 3 experiments."}, "[9]": {"settings": "high fat fed male C57Bl/6 mice, treatment period 1 week"}, "[10]": {"settings": "high fat fed male C57Bl/6 mice, treatment period 2 weeks"}, "[11]": {"settings": "high fat fed male C57Bl/6 mice, treatment period 4 weeks"}, "[12]": {"settings": "high fat fed male C57Bl/6 mice, treatment period 6 weeks"}, "[13]": {"settings": "high fat fed male C57Bl/6 mice, treatment period 2 days"}, "[14]": {"settings": "high fat fed mice, 1 week after cessation of dosing"}, "[15]": {"settings": "high fat fed mice, 2 weeks after cessation of dosing"}, "[16]": {"settings": "high fat fed mice, 4 weeks after cessation of dosing"}, "[17]": {"settings": "high fat fed mice, 6 weeks after cessation of dosing"}, "[18]": {"settings": "high fat fed mice, 8 weeks after cessation of dosing"}}}
{"substance": "141923 (CCTTCCCTGAAGGTTCCTCC; listed as DNA, chemistry not given here) [compound 141923]", "values": [{"measurement": "% Inhibition apolipoprotein B mRNA", "setting": "apolipoprotein B mRNA [1]; [9]", "value": 4, "unit": "%"}, {"measurement": "% Inhibition apolipoprotein B mRNA", "setting": "apolipoprotein B mRNA [1]; [10]", "value": 7, "unit": "%"}, {"measurement": "% Inhibition apolipoprotein B mRNA", "setting": "apolipoprotein B mRNA [1]; [11]", "value": 0, "unit": "%"}, {"measurement": "% Inhibition apolipoprotein B mRNA", "setting": "apolipoprotein B mRNA [1]; [12]", "value": 0, "unit": "%"}, {"measurement": "% Inhibition apolipoprotein B mRNA", "setting": "apolipoprotein B mRNA [1]; [13]", "value": 9, "unit": "%"}, {"measurement": "% Inhibition apolipoprotein B mRNA", "setting": "apolipoprotein B mRNA [1]; [14]", "value": 15, "unit": "%"}, {"measurement": "% Inhibition apolipoprotein B mRNA", "setting": "apolipoprotein B mRNA [1]; [15]", "value": 2, "unit": "%"}, {"measurement": "% Inhibition apolipoprotein B mRNA", "setting": "apolipoprotein B mRNA [1]; [16]", "value": 7, "unit": "%"}, {"measurement": "% Inhibition apolipoprotein B mRNA", "setting": "apolipoprotein B mRNA [1]; [17]", "value": 11, "unit": "%"}, {"measurement": "% Inhibition apolipoprotein B mRNA", "setting": "apolipoprotein B mRNA [1]; [18]", "value": 7, "unit": "%"}, {"measurement": "mRNA % control PTEN", "setting": "PTEN", "value": 113.6, "unit": "% control"}, {"measurement": "HDL-cholesterol", "setting": "[2]; [9]", "value": 116, "unit": "mg/dL"}, {"measurement": "LDL-cholesterol", "setting": "[2]; [9]", "value": 27, "unit": "mg/dL"}, {"measurement": "Total cholesterol", "setting": "[2]; [9]", "value": 146, "unit": "mg/dL"}, {"measurement": "HDL-cholesterol", "setting": "[2]; [10]", "value": 122, "unit": "mg/dL"}, {"measurement": "LDL-cholesterol", "setting": "[2]; [10]", "value": 27, "unit": "mg/dL"}, {"measurement": "Total cholesterol", "setting": "[2]; [10]", "value": 152, "unit": "mg/dL"}, {"measurement": "HDL-cholesterol", "setting": "[2]; [11]", "value": 128, "unit": "mg/dL"}, {"measurement": "LDL-cholesterol", "setting": "[2]; [11]", "value": 38, "unit": "mg/dL"}, {"measurement": "Total cholesterol", "setting": "[2]; [11]", "value": 169, "unit": "mg/dL"}, {"measurement": "HDL-cholesterol", "setting": "[2]; [12]", "value": 166, "unit": "mg/dL"}, {"measurement": "LDL-cholesterol", "setting": "[2]; [12]", "value": 56, "unit": "mg/dL"}, {"measurement": "Total cholesterol", "setting": "[2]; [12]", "value": 225, "unit": "mg/dL"}, {"measurement": "HDL-cholesterol", "setting": "[2]; [13]", "value": 70, "unit": "mg/dL"}, {"measurement": "LDL-cholesterol", "setting": "[2]; [13]", "value": 8, "unit": "mg/dL"}, {"measurement": "Total cholesterol", "setting": "[2]; [13]", "value": 99, "unit": "mg/dL"}, {"measurement": "HDL-cholesterol", "setting": "[2]; [14]", "value": 121, "unit": "mg/dL"}, {"measurement": "LDL-cholesterol", "setting": "[2]; [14]", "value": 24, "unit": "mg/dL"}, {"measurement": "Total cholesterol", "setting": "[2]; [14]", "value": 158, "unit": "mg/dL"}, {"measurement": "HDL-cholesterol", "setting": "[2]; [15]", "value": 105, "unit": "mg/dL"}, {"measurement": "LDL-cholesterol", "setting": "[2]; [15]", "value": 24, "unit": "mg/dL"}, {"measurement": "Total cholesterol", "setting": "[2]; [15]", "value": 139, "unit": "mg/dL"}, {"measurement": "HDL-cholesterol", "setting": "[2]; [16]", "value": 135, "unit": "mg/dL"}, {"measurement": "LDL-cholesterol", "setting": "[2]; [16]", "value": 32, "unit": "mg/dL"}, {"measurement": "Total cholesterol", "setting": "[2]; [16]", "value": 185, "unit": "mg/dL"}, {"measurement": "HDL-cholesterol", "setting": "[2]; [17]", "value": 136, "unit": "mg/dL"}, {"measurement": "LDL-cholesterol", "setting": "[2]; [17]", "value": 32, "unit": "mg/dL"}, {"measurement": "Total cholesterol", "setting": "[2]; [17]", "value": 186, "unit": "mg/dL"}, {"measurement": "HDL-cholesterol", "setting": "[2]; [18]", "value": 108, "unit": "mg/dL"}, {"measurement": "LDL-cholesterol", "setting": "[2]; [18]", "value": 24, "unit": "mg/dL"}, {"measurement": "Total cholesterol", "setting": "[2]; [18]", "value": 151, "unit": "mg/dL"}, {"measurement": "Intact oligonucleotide", "setting": "[3]; [9]", "value": 61, "unit": "µg/g"}, {"measurement": "Intact oligonucleotide", "setting": "[3]; [10]", "value": 152, "unit": "µg/g"}, {"measurement": "Intact oligonucleotide", "setting": "[3]; [11]", "value": 261, "unit": "µg/g"}, {"measurement": "Intact oligonucleotide", "setting": "[3]; [12]", "value": 631, "unit": "µg/g"}, {"measurement": "Intact oligonucleotide", "setting": "[3]; [13]", "value": 58, "unit": "µg/g"}, {"measurement": "Intact oligonucleotide", "setting": "[3]; [14]", "value": 297, "unit": "µg/g"}, {"measurement": "Intact oligonucleotide", "setting": "[3]; [15]", "value": 250, "unit": "µg/g"}, {"measurement": "Intact oligonucleotide", "setting": "[3]; [16]", "value": 207, "unit": "µg/g"}, {"measurement": "Intact oligonucleotide", "setting": "[3]; [17]", "value": 212, "unit": "µg/g"}, {"measurement": "Intact oligonucleotide", "setting": "[3]; [18]", "value": 128, "unit": "µg/g"}, {"measurement": "Glucose", "setting": "[4]", "value": 328.5, "unit": "mg/dL"}, {"measurement": "Lipoproteins CHOL", "setting": "[4]", "value": 646.3, "unit": "mg/dL"}, {"measurement": "Lipoproteins TRIG", "setting": "[4]", "value": 196.5, "unit": "mg/dL"}, {"measurement": "Liver Enzymes ALT", "setting": "[4]", "value": 701.7, "unit": "IU/L"}, {"measurement": "Liver Enzymes AST", "setting": "[4]", "value": 329.3, "unit": "IU/L"}, {"measurement": "mRNA % control ApoB", "setting": "apolipoprotein B mRNA [5]", "value": 100.0, "unit": "% control"}]}
{"substance": "GCCTCAGTCTGCTTTACACC (gapmer: ten 2'-deoxy gap, five-nucleotide wings, wing chemistry not given here) [ISIS 326358]", "values": [{"measurement": "apolipoprotein B expression (immunoblot)", "setting": "apolipoprotein B protein [6]", "value": "substantial reduction"}, {"measurement": "inhibition of apolipoprotein B mRNA expression", "setting": "[7]", "value": "in a dose- and time-dependent manner"}, {"measurement": "secretion of apolipoprotein B protein (ELISA)", "setting": "apolipoprotein B protein [8]", "value": "decrease"}]}
